Patent publication EP2818472A1, “Imidazo[4,5-c]pyridine and pyrrolo[3,2-c]pyridine compounds as G-protein-coupled receptor kinase 5 (GRK5) modulators” (Max-Planck-Gesellschaft zur Förderung der Wissenschaften …, priority 2013, dated 2014)

Test system: beta-TC6 cells
Experiment: Insulin HTRF assay (relative activity Ar) in beta-TC6 cells
Type: cell-based, mouse
Conditions: Mus musculus, Beta-TC6, 4 h, insulin HTRF, supernatant of beta-TC6 cells, incubation with test compound at 37°C for 2, 3, 4h; read-out: Ar (relative activity)
Procedure, shortened: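 beta-TC6 cells (15k/well, seeded 24 or 48 h) washed, then exposed to compound in induction buffer (0.5% DMSO final) for 2, 3 or 4 h at 37°C.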

SMILES	Emax [%]
COc1cc(-n2cnc3cnc(Nc4cccc(C(F)(F)F)c4)cc32)cc(OC)c1OC [Compound 690, N-[3-(trifluoromethyl)phenyl]-1-(3,4,5-trimethoxyphenyl)imidazo[4,5-c]pyridin-6-amine]	> 100
COc1cccc(-c2cc3c(Nc4ccccc4)nccc3[nH]2)c1 [Compound 309, 2-(3-methoxyphenyl)-N-phenyl-1H-pyrrolo[3,2-c]pyridin-4-amine]	30 to 50
OC1CCC(Nc2nccc3[nH]c(-c4cccc(OC(F)(F)F)c4)nc23)CC1 (stereo not shown) [Compound 443, 4-[[2-[3-(trifluoromethoxy)phenyl]-1H-imidazo[4,5-c]pyridin-4-yl]amino]cyclohexanol]	30 to 50
CN(C)C(=O)c1ccc(-c2cc3c(Nc4cccc(Oc5ccccc5)c4)nccc3n2C)cc1 [Compound 223, N,N-dimethyl-4-[1-methyl-4-(3-phenoxyanilino)pyrrolo[3,2-c]pyridin-2-yl]benzamide]	0 to 30
Clc1ccccc1-c1nc2c(NCCc3ccncc3)nccc2[nH]1 [Compound 459, 2-(2-chlorophenyl)-N-[2-(4-pyridyl)ethyl]-1H-imidazo[4,5-c]pyridin-4-amine]	0 to 30
COc1cccc(-c2cc3c(cn2)nc(NCCc2cc(OC)ccc2OC)n3C)c1 [Compound 823, N-[2-(2,5-dimethoxyphenyl)ethyl]-6-(3-methoxyphenyl)-1-methyl-imidazo[4,5-c]pyridin-2-amine]	30 to 50
Cc1cccc(CNc2nc3cnc(Nc4cccc(NS(C)(=O)=O)c4)cc3n2C)c1 [Compound 587, N-[3-[[1-methyl-2-(m-tolylmethylamino)imidazo[4,5-c]pyridin-6-yl]amino]phenyl]methanesulfonamide]	50 to 100
CNc1nc2cnc(Nc3cccc(C(C)=O)c3)cc2n1-c1cccc(F)c1 [Compound 689, 1-[3-[[1-(3-fluorophenyl)-2-(methylamino)imidazo[4,5-c]pyridin-6-yl]amino]phenyl]ethanone]	50 to 100
CC(=O)Nc1cccc(Nc2cc3c(cn2)cc(-c2cccnc2)n3C)c1 [Compound 96, N-[3-[[1-methyl-2-(3-pyridyl)pyrrolo[3,2-c]pyridin-6-yl]amino]phenyl]acetamide]	50 to 100
CC(=O)Nc1ccc(Nc2cc3c(cn2)nc(-c2ccco2)n3C)cc1 [Compound 708, N-[4-[[2-(2-furyl)-1-methyl-imidazo[4,5-c]pyridin-6-yl]amino]phenyl]acetamide]	> 100
CN(C)C(=O)c1ccc(-c2cc3c(Nc4cccc(NS(C)(=O)=O)c4)nccc3n2C)cc1 [Compound 225, 4-[4-[3-(methanesulfonamido)anilino]-1-methyl-pyrrolo[3,2-c]pyridin-2-yl]-N,N-dimethyl-benzamide]	30 to 50
CS(=O)(=O)c1cccc(Nc2nccc3[nH]c(-c4cccc(F)c4)cc23)c1 [Compound 202, 2-(3-fluorophenyl)-N-(3-methylsulfonylphenyl)-1H-pyrrolo[3,2-c]pyridin-4-amine]	30 to 50
Cn1c(NCc2ccccc2F)nc2cnc(-c3ccc(CO)cc3)cc21 [Compound 655, [4-[2-[(2-fluorophenyl)methylamino]-1-methyl-imidazo[4,5-c]pyridin-6-yl]phenyl]methanol]	50 to 100
CN(C)C(=O)c1ccc(-c2cc3cnc(Nc4cccc(NS(C)(=O)=O)c4)cc3n2C)cc1 [Compound 55, 4-[6-[3-(methanesulfonamido)anilino]-1-methyl-pyrrolo[3,2-c]pyridin-2-yl]-N,N-dimethyl-benzamide]	50 to 100
CNc1nc2cnc(Nc3ccc(F)cc3)cc2n1C [Compound 611, N6-(4-fluorophenyl)-N2,1-dimethyl-imidazo[4,5-c]pyridine-2,6-diamine]	30 to 50
Fc1cccc(-c2cc3cnc(N4CCOCC4)cc3[nH]2)c1 [Compound 12, 4-[2-(3-fluorophenyl)-1H-pyrrolo[3,2-c]pyridin-6-yl]morpholine]	> 100

SMILES	Emax [%]
CNc1nc2cnc(Nc3ccc(Oc4ccccc4)cc3)cc2n1C [Compound 749, N2,1-dimethyl-N6-(4-phenoxyphenyl)imidazo[4,5-c]pyridine-2,6-diamine]	0 to 30
Cc1ccc(-c2nc3c(Nc4cccc(O)c4)nccc3[nH]2)cc1 [Compound 383, 3-[[2-(p-tolyl)-1H-imidazo[4,5-c]pyridin-4-yl]amino]phenol]	50 to 100
Cn1c(NCC2CCCO2)nc2cnc(-c3ccc(N4CCOCC4)cc3)cc21 (stereo not shown) [Compound 640, 1-methyl-6-(4-morpholinophenyl)-N-(tetrahydrofuran-2-ylmethyl)imidazo[4,5-c]pyridin-2-amine]	30 to 50
Cn1cc(-c2cc3cnc(Nc4ccc5c(c4)OCCO5)cc3n2C)cn1 [Compound 128, N-(2,3-dihydro-1,4-benzodioxin-6-yl)-1-methyl-2-(1-methylpyrazol-4-yl)pyrrolo[3,2-c]pyridin-6-amine]	50 to 100
FC(F)(F)c1cccc(-c2nc3c(NCCN4CCOCC4)nccc3[nH]2)c1 [Compound 357, N-(2-morpholinoethyl)-2-[3-(trifluoromethyl)phenyl]-1H-imidazo[4,5-c]pyridin-4-amine]	30 to 50
CNc1nc2cnc(Nc3ccc4c(c3)OCO4)cc2n1CCOC [Compound 497, N6-(1,3-benzodioxol-5-yl)-1-(2-methoxyethyl)-N2-methyl-imidazo[4,5-c]pyridine-2,6-diamine]	50 to 100
COc1ccc(Cn2cnc3cnc(Nc4ccc5c(c4)OCO5)cc32)cc1OC [Compound 731, N-(1,3-benzodioxol-5-yl)-1-[(3,4-dimethoxyphenyl)methyl]imidazo[4,5-c]pyridin-6-amine]	50 to 100
COc1ccc(Nc2nccc3[nH]c(-c4cccc(O)c4)nc23)cc1 [Compound 362, 3-[4-(4-methoxyanilino)-1H-imidazo[4,5-c]pyridin-2-yl]phenol]	50 to 100
CNc1nc2cnc(Nc3ccc4c(c3)OCCO4)cc2n1CC1CC1 [Compound 570, 1-(cyclopropylmethyl)-N6-(2,3-dihydro-1,4-benzodioxin-6-yl)-N2-methyl-imidazo[4,5-c]pyridine-2,6-diamine]	30 to 50
COc1cccc(-c2nc3c(Nc4cccc(F)c4)nccc3[nH]2)c1F [Compound 481, 2-(2-fluoro-3-methoxy-phenyl)-N-(3-fluorophenyl)-1H-imidazo[4,5-c]pyridin-4-amine]	30 to 50
CC(=O)Nc1ccc(Nc2cc3[nH]c(-c4cnn(C)c4)cc3cn2)cc1 [Compound 121, N-[4-[[2-(1-methylpyrazol-4-yl)-1H-pyrrolo[3,2-c]pyridin-6-yl]amino]phenyl]acetamide]	> 100
COCCNC(=O)c1cccc(-c2nc3c(Nc4ccccc4)nccc3[nH]2)c1 [Compound 387, 3-(4-anilino-1H-imidazo[4,5-c]pyridin-2-yl)-N-(2-methoxyethyl)benzamide]	30 to 50
CNc1nc2cnc(Nc3ccccc3)cc2n1Cc1ccc(OC)c(OC)c1 [Compound 667, 1-[(3,4-dimethoxyphenyl)methyl]-N2-methyl-N6-phenyl-imidazo[4,5-c]pyridine-2,6-diamine]	30 to 50
CC(=O)c1cccc(Nc2nccc3[nH]c(-c4ccsc4)cc23)c1 [Compound 267, 1-[3-[[2-(3-thienyl)-1H-pyrrolo[3,2-c]pyridin-4-yl]amino]phenyl]ethanone]	50 to 100
COc1cc(OC)cc(-c2cc3c(N4CCOCC4)nccc3n2C)c1 [Compound 192, 4-[2-(3,5-dimethoxyphenyl)-1-methyl-pyrrolo[3,2-c]pyridin-4-yl]morpholine]	0 to 30
